Data: US10870875B2, “Metalloprotein compositions” (Commonwealth Scientific and Industrial Research Organisation, priority 2014, dated 2020)
Residue numbers refer to the chain shown, from its start.

Key:
[1] = target: T1, Apis mellifera AmelF3 (SEQ ID NO: 39) variant Tyr76His (Y76H) (Apis mellifera, UniProt A0ACM8QI31, Y95H); test: Binding of haem b to AmelF3 Tyr76His; conditions: UV/Vis, in solution and film
T1 construct: solution and film
T1 sequence (A0ACM8QI31 20-335 Y95H): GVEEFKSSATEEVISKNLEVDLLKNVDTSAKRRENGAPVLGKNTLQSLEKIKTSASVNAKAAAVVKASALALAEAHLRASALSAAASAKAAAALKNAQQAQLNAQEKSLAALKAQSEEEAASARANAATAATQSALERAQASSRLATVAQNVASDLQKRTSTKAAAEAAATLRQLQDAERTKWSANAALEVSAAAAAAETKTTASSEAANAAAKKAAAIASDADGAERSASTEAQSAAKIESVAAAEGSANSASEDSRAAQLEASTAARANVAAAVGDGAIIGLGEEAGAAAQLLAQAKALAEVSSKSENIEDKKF
Procedure: (§1) Site directed mutagenesis of honeybee silk proteins was carried using methods known to the person skilled in the art. For example, to generate AmelF3 Tyr76Ala, the forward primer 5′-[…]-3′ (SEQ ID NO: 80) with the corresponding reverse primer was employed and site directed mutagenesis was carried out using Pfx 50 DNA polymerase from Invitrogen following the Pfx50 manufactures instructions. All AmelF3 mutants were expressed and purified using a similar procedure as the unmodified AmelF3 silk protein. To generate AmelF3 Tyr76His, the forward primer 5′-[…]-3′ (SEQ ID NO: 81) with the corresponding reverse primer was employed. To generate AmelF3 Ala97His, the forward primer 5′-[…]-3′ (SEQ ID NO: 82) was used.
The present inventors also mutated Tyr76 to a histidine and investigated the effect the single amino acid substitution had on binding to haem b. […] The sharp peak observed at around 400 nm is indicative of the coordination of an amino acid residue to the iron haem centre.
(§2) A coordinating His residue (His97) was introduced into AmelF3 with Y76H substitution in the a-position of the coiled-coil.

[2] = target: T2, Apis mellifera AmelF3 (SEQ ID NO: 39) variant Y76H A97H (Apis mellifera, UniProt A0ACM8QI31, A116H/Y95H); test: Binding of heme to AmelF3 Y76H A97H; conditions: Soret peak vs heme ratio
T2 sequence (A0ACM8QI31 20-335 Y95H/A116H): T1 sequence (A0ACM8QI31 20-335 Y95H) with A97H
Procedure: as §1, §2

[3] = target: T3, Oecophylla smaragdina silk fibroin 3 (GA3), SEQ ID NO: 11 (Oecophylla smaragdina, UniProt A8IM91); test: Haem b leached into green ant silk GA3 film; assay type: binding; conditions: signal at around 400 nm
T3 construct: film
T3 sequence (A8IM91 20-395): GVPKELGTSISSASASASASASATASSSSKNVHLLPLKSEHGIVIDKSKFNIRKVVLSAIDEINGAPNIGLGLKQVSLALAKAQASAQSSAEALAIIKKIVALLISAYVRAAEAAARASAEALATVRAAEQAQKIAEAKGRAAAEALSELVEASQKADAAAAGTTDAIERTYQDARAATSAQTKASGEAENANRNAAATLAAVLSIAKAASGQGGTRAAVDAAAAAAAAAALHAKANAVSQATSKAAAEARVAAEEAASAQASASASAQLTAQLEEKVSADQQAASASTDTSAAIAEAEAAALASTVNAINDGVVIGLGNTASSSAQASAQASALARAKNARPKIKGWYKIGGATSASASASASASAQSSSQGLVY
Text: Full length, recombinant honeybee silk proteins (AmelF3) without affinity purification tags, were produced by fermentation in Escherichia coli as described in Weisman et al. (2010). Full length, recombinant Weaver Ant/Green Ant (Oecophylla smaragdina) silk proteins (GA1, GA2, GA3, GA4) without affinity purification tags, were produced by fermentation in Escherichia coli following the same procedures as outlined in Weisman et al. (2010).
Alternatively, haem b was ‘leached’ into a pre-formed film. The AmelF3 material was formed as described in example 1. The silk material was soaked in a solution of haem b (0.5 mg/mL; haem b in excess) in 70% methanol solution for between 1 and 48 hours followed by washing with 70% methanol to remove any unbound haem b and dried at room temperature.
Transparent films from the Green Ant (Oecophylla smaragdina) (GA1-4) silk proteins were prepared as described above. Haem b in 70% methanol was leached into the preformed Green Ant silk film as described at Example 3. UV/Vis spectra were collected for Green Ant silk film after haem b had been leached.

In the case of `C=CC1=C(C)c2cc3[nH]c(cc4nc(cc5[nH]c(cc1n2)c(C)c5CCC(=O)O)C(CCC(=O)O)=C4C)c(C)c3C=C.[Fe]` [haem b], the “binding to silk protein (in words)” value [1] is reported as “bound haem b via a co-ordinate bond”, the “number of heme cofactors bound” value [2] is reported as “two” and the “haem binding (in words)” value [3] is reported as “strongly bound haem”.
